The text below walks through data of patent US20030130290A1, “Fungicidal combinations comprising thieno[2,3-d]pyrimidin-4-one” (priority 1997, published 2003).

Test [1] deals with Erysiphe graminis f.sp. tritici. Kind of test: Efficacy against Erysiphe graminis f.sp. tritici on wheat (Example B-1), spray application. Type of test: in vivo, Erysiphe graminis f.sp. tritici on wheat plants c.v. Arina. From the text: (§1) A synergistic effect exists whenever the action of an active ingredient combination is greater than the sum of the actions of the individual components.
(§2) The action to be expected E for a given active ingredient combination obeys the so-called COLBY formula and can be calculated as follows (COLBY, S. R. “Calculating synergistic and antagonistic responses of herbicide combination”. Weeds, Vol. 15, pages 20-22; 1967):
(§3) According to Colby, the expected (additive) action of active ingredients I+II using p+q ppm of active ingredient is [formula]
(§4) If the action actually observed (O) is greater than the expected action (E), then the action of the combination is superadditive, i.e. there is a synergistic effect. Alternatively the synergistic action may also be determined from the dose response curves according to the so-called WADLEY method. With this method the efficacy of the a.i. is determined by comparing the degree of fungal attack on treated plants with that on untreated, similarly inoculated and incubated check plants. Each a.i. is tested at 4 to 5 concentrations. The dose response curves are used to establish the EC90 (i.e. concentration of a.i. providing 90% disease control) of the single compounds as well as of the combinations (EC 90observed). The thus experimentally found values of the mixtures at a given weight ratio are compared with the values that would have been found were only a complementary efficacy of the components was present (EC 90 (A+B)expected). The EC90 (A+B)expected is calculated according to Wadley (Levi et al., EPPO- Bulletin 16, 1986, 651-657): [formula]
Wheat plants c.v. “Arina”, about 10 days old, are sprayed with aqueous suspensions of the active ingredients or mixtures thereof. One day later, the plants are inoculated by dusting with spores of Erysiphe graminis. The tests may also be carried out with curative applications, i.e. application 1-3 days after artificial inoculation of the plants. The plants are incubated in the greenhouse or in climate chambers at 20° C., 70% relative humidity. 7 to 10 days after inoculation, fungal attack on primary leaves is assessed.
(§5) The efficacy of the test combinations and the single active ingredients in the above tests is determined by comparing the degree of fungal attack with that on untreated, similarly inoculated check plants.

Test [2] deals with Puccinia recondita. Kind of test: Activity against Puccinia recondita in wheat (B-7), spray application. It counts as in vivo, Puccinia recondita on wheat plants c.v. Arina. The following applies: Table 5.
Description: as §1, §2, §3, §4
Wheat plants c.v. “Arina”, about 10 days old, are sprayed with aqueous suspensions of the active ingredients or mixtures thereof. One day later, the plants are inoculated with a spore suspension of the fungus. The test may also be carried out with curative applications, i.e. application 1-3 days later after artificial inoculation of the plants. The plants are incubated in a growth chamber for 2 days at °20° C. and 95-100% relative humidity, then further 10 days at 20° C. and 70% relative humidity. Fungal attack on primary leaves is assessed.
as §5

Test [3] deals with Helminthosporium gramineum. Kind of test: Activity against Helminthosporium gramineum on barley (Example B-12), seed treatment. It counts as in vivo. The conditions noted are these: Table 6.
Description: as §1, §2, §3, §4
Barley seed which is infected with H.gramineum is harvested from the field. […] About 60 days after sowing, the number of existing plants and the number of infected plants are determined. Symptoms are expressed as typical stripe-shaped spots on the first leaf. The total infection rate is compared with the total infection rate in the comparison seed trays with untreated seeds and expressed as the total percentage infection rate.

`CC(Cc1ccc(C(C)(C)C)cc1)CN1CCCCC1` (stereo not drawn) [fenpropidine, reference compound]: the inhibition at 2.5 ppm in test [1] (Blumeria graminis, Table 4, 2.5 ppm alone, read-out: % activity observed) was determined as 35%. Besides, the inhibition at 5 ppm in test [1] (Blumeria graminis, Table 4, 5 ppm alone, read-out: % activity observed) worked out at 51%. Moreover, the inhibition at 10 ppm in test [1] (Blumeria graminis, Table 4, 10 ppm alone, read-out: % activity observed) turned out to be 63%.
For `CC(C1CC1)C(O)(Cn1cncn1)c1ccc(Cl)cc1` (stereo not drawn) [cyproconazole, reference compound], the “% activity observed” value in test [1] (Table 2, 1 ppm alone) stood at 8%; in test [1] (Table 2, 2.5 ppm alone), 49%; in test [1] (Table 2, 5 ppm alone), 100%; in test [1] (Table 2, 10 ppm alone), 100%.
Regarding `CON=C(C(=O)OC)c1ccccc1CON=C(C)c1cccc(C(F)(F)F)c1` [cmpd. V, methyl 2-{2-[4-(3-trifluoromethylphenyl)-3-aza-2-oxa-3-pentenyl]-phenyl}-2-methoxyimino-acetate, reference compound], the inhibition at 1 ppm in test [2] (Puccinia recondita, 1 ppm alone, read-out: % activity observed) is 17%. The inhibition at 2.5 ppm in test [2] (Puccinia recondita, 2.5 ppm alone, read-out: % activity observed) was found to be 32%. For the same compound, in test [2] (Puccinia recondita, 5 ppm alone, read-out: % activity observed), the inhibition at 5 ppm was 38%. Besides, the inhibition at 10 ppm in test [2] (Puccinia recondita, 10 ppm alone, read-out: % activity observed) amounted to 37%.
In the case of `N#Cc1c[nH]cc1-c1cccc2c1OC(F)(F)O2` [Fludioxonil, fludioxonil, reference compound], the “% activity observed” value in test [1] (Table 1, 10 ppm alone) was found to be 2%; in test [1] (Table 1, 25 ppm alone), 0%; in test [1] (Table 1, 50 ppm alone) it was 6%; in test [1] (Table 1, 100 ppm alone), 14%; in test [1] (Table 1, 250 ppm alone), 19%; in test [1] (Table 1, 500 ppm alone), 27%.
Take `CCCOc1nc2sc(Cl)cc2c(=O)n1CCC` [cmpd. I.01]: the “% activity observed” value in test [1] (Table 1, 10 ppm alone) was 0%; in test [1] (Table 1, 25 ppm alone), 0%; in test [1] (Table 1, 50 ppm alone) it was 12%; in test [1] (Table 1, 100 ppm alone) it was 26%; in test [1] (Table 1, 250 ppm alone), 34%; in test [1] (Table 1, 500 ppm alone), 66%. For the same compound, the “% activity observed” value in test [1] (Table 2, 1 ppm alone) came to 0%; in test [1] (Table 2, 2.5 ppm alone), 0%; in test [1] (Table 2, 5 ppm alone) it was 8%; in test [1] (Table 2, 10 ppm alone), 8%; in test [1] (Table 2, o.5 ppm alone) it was 0%; in test [1] (Table 3, 0.5 ppm alone) it was 2%. Also, the “% activity observed” value amounted to 0% in test [1] (Table 3, 1 ppm alone); 14% in test [1] (Table 3, 2.5 ppm alone); 8% in test [1] (Table 3, 5 ppm alone); 4% in test [1] (Table 3, 10 ppm alone); 0% in test [1] (Table 4, 0.25 ppm alone); 0% in test [1] (Table 4, 0.5 ppm alone). Also, the “% activity observed” value in test [1] (Table 4, 1 ppm alone) is 0%; in test [1] (Table 4, 2.5 ppm alone), 0%; in test [2] (0.5 ppm alone), 0%; in test [2] (1 ppm alone) it was 0%; in test [2] (2.5 ppm alone) it was 0%; in test [2] (5 ppm alone), 0%. The “% activity observed” value in test [2] (10 ppm alone) amounted to 0%; in test [2] (25 ppm alone), 0%; in test [3] (20 g a.i./100 kg seed alone) it was 11%.
For `CC1(C)CC/C(=C\c2ccc(Cl)cc2)C1(O)Cn1cncn1` (stereo not drawn) [triticonazole], the “% activity observed” value in test [3] (20 g a.i./100 kg seed alone) came out at 12%; in test [3] (40 g a.i./100 kg seed alone) it was 22%.
`CCCC1COC(Cn2cncn2)(c2ccc(Cl)cc2Cl)O1` (stereo not drawn) [propiconazole, reference compound]: the “% activity observed” value was 0% in test [1] (Table 3, 0.1 ppm alone); 0% in test [1] (Table 3, 0.25 ppm alone); 6% in test [1] (Table 3, 0.5 ppm alone); 8% in test [1] (Table 3, 1 ppm alone); 72% in test [1] (Table 3, 2.5 ppm alone).
